In US10640495B2, “Heterocycle derivatives having TrkA inhibitory activity” (Shionogi & Co., Ltd., priority 2015, dated 2020):
pIC50: −log10 of the molar value.

target: human TrkA (Homo sapiens (Human), UniProt P04629); test: Human TrkA inhibition assay (Test Example 2); format: biochemical; conditions: Table 153, human TrkA inhibition; read-out: IC50
Summary of the method: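 Recombinant TrkA (1 nmol/L) was preincubated 15 min at room temperature with compound in HEPES/MgCl2/DTT buffer, then reacted with FL-peptide 27 (1.5 μmol/L) and ATP (500 μmol/L) for 120 min at 37 °C. After EDTA stop, substrate phosphorylation was read by microfluidic mobility shift. IC50 came from logistic regression over 3-fold dilution series.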

Chain of human TrkA (P04629 440-796): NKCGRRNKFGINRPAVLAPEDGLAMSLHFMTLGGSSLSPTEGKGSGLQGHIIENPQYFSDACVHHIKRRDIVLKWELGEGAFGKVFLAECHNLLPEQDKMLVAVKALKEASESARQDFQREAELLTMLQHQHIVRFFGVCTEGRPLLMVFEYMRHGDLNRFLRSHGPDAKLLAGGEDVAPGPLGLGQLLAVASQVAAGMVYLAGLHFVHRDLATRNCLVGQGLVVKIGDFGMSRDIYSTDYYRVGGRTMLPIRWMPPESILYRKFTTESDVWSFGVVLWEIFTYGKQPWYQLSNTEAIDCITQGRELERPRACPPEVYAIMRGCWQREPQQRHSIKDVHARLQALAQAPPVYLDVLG

Row | pIC50 | Structure (SMILES)
1 | > 7.00 | CNC(=O)c1cc(-c2nn(-c3ccccc3)c(NC(=O)N[C@@H]3CN(CCOC)O[C@H]3c3ccccc3)c2C)cn(C)c1=O (racemic) [Compound I-163]
2 | > 7.00 | COCCN1C[C@@H](NC(=O)Nc2c(C)c(-c3cnc4c(c3)ncn4C)nn2-c2ccccc2)[C@H](c2ccnc(F)c2)O1 (racemic) [Compound I-164]
3 | > 7.00 | CCNC(=O)c1ncc(-c2nn(-c3ccccc3)c(NC(=O)N[C@@H]3CN(CCOC)O[C@H]3c3ccnc(F)c3)c2C)cc1C (racemic) [Compound I-167]
4 | > 7.00 | COCCN1C[C@@H](NC(=O)Nc2c(C)c(-c3cnc(C(=O)NCC(F)(F)F)c(C)c3)nn2-c2ccccc2)[C@H](c2ccnc(F)c2)O1 (racemic) [Compound I-168]
5 | > 7.00 | COCCN1C[C@@H](NC(=O)Nc2c(C)c(-c3cnc(C(=O)NC4CC4)c(C)c3)nn2-c2ccccc2)[C@H](c2ccnc(F)c2)O1 (racemic) [Compound I-169]
6 | > 7.00 | COCCN1C[C@@H](NC(=O)Nc2c(C)c(-c3cnc(C(=O)NCC4CC4)c(C)c3)nn2-c2ccccc2)[C@H](c2ccnc(F)c2)O1 (racemic) [Compound I-170]
7 | > 7.00 | COCCN1C[C@@H](NC(=O)Nc2c(C)c(-c3cnc(C(=O)NC4CCOCC4)c(C)c3)nn2-c2ccccc2)[C@H](c2ccnc(F)c2)O1 (racemic) [Compound I-171]
8 | > 7.00 | COCCNC(=O)c1ncc(-c2nn(-c3ccccc3)c(NC(=O)N[C@@H]3CN(CCOC)O[C@H]3c3ccnc(F)c3)c2C)cc1C (racemic) [Compound I-173]
9 | > 7.00 | COCCN1C[C@@H](NC(=O)Nc2c(C)c(-c3cnc4c(cnn4C)c3)nn2-c2ccc(F)cc2)[C@H](c2ccc(F)c(F)c2)O1 (racemic) [Compound I-174]
10 | > 7.00 | COCCN1C[C@@H](NC(=O)Nc2c(C)c(-c3cnc4c(cnn4C)c3)nn2-c2ccc(F)c(F)c2)[C@H](c2ccc(F)c(F)c2)O1 (racemic) [Compound I-175]
11 | > 7.00 | COCCN1C[C@@H](NC(=O)Nc2c(C)c(-c3cnc(C)c(N=S(C)(C)=O)c3)nn2-c2ccccc2)[C@H](c2ccc(F)c(F)c2)O1 (racemic) [Compound I-176]

Second part, the compound before the results:

Row | Structure (SMILES) | pIC50
12 | COCCN1C[C@@H](NC(=O)Nc2c(C)c(-c3cnc(N4CC(O)C4)nc3)nn2-c2ccccc2)[C@H](c2ccnc(F)c2)O1 (racemic) [Compound I-144] | > 7.00
13 | CNC(=O)c1cc(-c2nn(-c3ccccc3)c(NC(=O)N[C@@H]3CN(CCOC)O[C@H]3c3ccc(F)c(F)c3)c2C)cn(C)c1=O (racemic) [Compound I-147] | > 7.00
14 | CCN1C[C@@H](NC(=O)Nc2c(C)c(-c3cc(C(=O)NC)c(=O)n(C)c3)nn2-c2ccccc2)[C@H](c2ccc(F)c(F)c2)O1 (racemic) [Compound I-148] | > 7.00
15 | CNC(=O)c1cc(-c2nn(-c3ccccc3)c(NC(=O)N[C@@H]3CN(Cc4ccco4)O[C@H]3c3ccc(F)c(F)c3)c2C)cn(C)c1=O (racemic) [Compound I-149] | > 7.00
16 | CNC(=O)c1cc(-c2nn(-c3ccccc3)c(NC(=O)N[C@@H]3CN(Cc4ccc(C#N)o4)O[C@H]3c3ccc(F)c(F)c3)c2C)cn(C)c1=O (racemic) [Compound I-150] | > 7.00
17 | CNC(=O)c1cc(-c2nn(-c3ccccc3)c(NC(=O)N[C@@H]3CN(Cc4csnn4)O[C@H]3c3ccc(F)c(F)c3)c2C)cn(C)c1=O (racemic) [Compound I-151] | > 7.00
18 | COCCN1C[C@@H](NC(=O)Nc2c(C)c(-c3cnc4cccnc4c3)nn2-c2ccccc2)[C@H](c2ccc(F)c(F)c2)O1 (racemic) [Compound I-152] | > 7.00
19 | COCCN1C[C@@H](NC(=O)Nc2c(C)c(C3=CCN(c4ncc(Cl)cn4)CC3)nn2-c2ccccc2)[C@H](c2ccc(F)c(F)c2)O1 (racemic) [Compound I-153] | > 7.00
20 | COCCN1C[C@@H](NC(=O)Nc2c(C)c(-c3cnc(C)nc3)nn2-c2ccccc2)[C@H](c2cnc(Cl)s2)O1 (racemic) [Compound I-154] | > 7.00
21 | COCCN1C[C@@H](NC(=O)Nc2c(C)c(-c3ccn4c(C)nnc4c3)nn2-c2ccccc2)[C@H](c2ccnc(F)c2)O1 (racemic) [Compound I-155] | > 7.00
22 | COCCN1C[C@@H](NC(=O)Nc2c(C)c(-c3ccn4nc(C)nc4c3)nn2-c2ccccc2)[C@H](c2ccnc(F)c2)O1 (racemic) [Compound I-156] | > 7.00
23 | COCCN1C[C@@H](NC(=O)Nc2c(C)c(-c3cnc(OC)nc3)nn2-c2ccccc2)[C@H](c2cnc(Cl)s2)O1 (racemic) [Compound I-157] | > 7.00
24 | COCCN1C[C@@H](NC(=O)Nc2c(C)c(-c3ccc4nnc(C)n4c3)nn2-c2ccccc2)[C@H](c2ccnc(F)c2)O1 (racemic) [Compound I-158] | > 7.00
25 | COCCN1C[C@@H](NC(=O)Nc2c(C)c(-c3cnc(C)nc3)nn2-c2ccccc2)[C@H](c2ccccc2)O1 (racemic) [Compound I-160] | > 7.00
26 | COCCN1C[C@@H](NC(=O)Nc2c(C)c(-c3cnc4c(c3)ncn4C)nn2-c2ccccc2)[C@H](c2ccccc2)O1 (racemic) [Compound I-161] | > 7.00
27 | COCCN1C[C@@H](NC(=O)Nc2c(C)c(-c3cnc4c(c3)nnn4C)nn2-c2ccccc2)[C@H](c2ccccc2)O1 (racemic) [Compound I-162] | > 7.00

same assay, conditions: Table 154, human TrkA inhibition; read-out: IC50

Row | pIC50 | Structure (SMILES)
28 | > 7.00 | CNS(=O)(=O)c1cc(-c2nn(-c3ccccc3)c(NC(=O)N[C@@H]3CN(CCOC)O[C@H]3c3ccc(F)c(F)c3)c2C)cn(C)c1=O (racemic) [Compound I-177]
29 | > 7.00 | CNS(=O)(=O)c1cc(-c2nn(-c3ccccc3)c(NC(=O)N[C@@H]3CN(CCOC)O[C@H]3c3ccnc(F)c3)c2C)cn(C)c1=O (racemic) [Compound I-178]
30 | > 7.00 | COCCN1C[C@@H](NC(=O)Nc2c(C)c(-c3cnc(OC)c(C(=O)O)c3)nn2-c2ccccc2)[C@H](c2cnc(F)c(F)c2)O1 (racemic) [Compound I-179]
31 | > 7.00 | CNC(=O)c1cc(-c2nn(-c3ccc(F)c(F)c3)c(NC(=O)N[C@@H]3CN(CCOC)O[C@H]3c3ccc(F)c(F)c3)c2C)cnc1OC (racemic) [Compound I-181]
32 | > 7.00 | COCCN1C[C@@H](NC(=O)Nc2c(C)c(-c3cnc(OC)c(C(=O)NC4CCOCC4)c3)nn2-c2ccc(F)c(F)c2)[C@H](c2ccc(F)c(F)c2)O1 (racemic) [Compound I-182]
33 | > 7.00 | CNC(=O)c1cc(-c2nn(-c3ccc(F)cc3)c(NC(=O)N[C@@H]3CN(CCOC)O[C@H]3c3ccc(F)c(F)c3)c2C)cnc1OC (racemic) [Compound I-183]

same assay, conditions: human TrkA 1 nmol/L, ATP 500 μmol/L, 120 min at 37° C.; read-out: IC50 values (TrkA phosphorylation inhibition)

Row | pIC50 | Structure (SMILES)
34 | 8.28 | COCCN1C[C@@H](NC(=O)Nc2c(C)c(-c3cnc(C(N)=O)c(C)c3)nn2-c2ccccc2)[C@H](c2ccnc(F)c2)O1 (racemic) [Compound I-165]
35 | 8.32 | CNC(=O)c1ncc(-c2nn(-c3ccccc3)c(NC(=O)N[C@@H]3CN(CCOC)O[C@H]3c3ccnc(F)c3)c2C)cc1C (racemic) [Compound I-166]

Further lines, the compound ahead of its results:

Row | Structure (SMILES) | pIC50
36 | COCCN1C[C@@H](NC(=O)Nc2c(C)c(-c3ccc(-c4nn[nH]n4)nc3)nn2-c2ccccc2)[C@H](c2ccc(F)c(F)c2)O1 (racemic) [Compound I-145] | 9.06
37 | COCCN1C[C@@H](NC(=O)Nc2c(C)c(-c3cnn(C)c3)nn2C2CCC2)[C@H](c2ccc(F)c(F)c2)O1 (racemic) [Compound I-146] | 6.48
38 | COCCN1C[C@@H](NC(=O)Nc2c(C)c(-c3ccc4nc(C)nn4c3)nn2-c2ccccc2)[C@H](c2ccnc(F)c2)O1 (racemic) [Compound I-159] | 8.68
